Assay results as given in patent publication US6949553B2, “Aliphatic compounds, their synthesis method, and utilization of the same” (Maruha Corporation, priority 2001, dated 2005).

Key:
[1] = tested on: rat lauric acid-induced leg necrosis; assay: Rat lauric acid-induced peripheral circulatory disorder model (leg necrosis score); format: in vivo; details: for leg necrosis score (in words): iv once daily 14 days, 10, 30 or 100 μg/kg; for alleviation of the disorder (in words): prior administration
Protocol: A rat lauric acid-induced peripheral circulatory disorder model, which is widely used as a peripheral circulatory disorder model, was used to investigate the effect of the compounds of the present invention on an in vivo pathophysiological model of circulatory disorder.
Lauric acid (1.5 mg/animal) was administered into the rat femoral artery to induce leg necrosis.
A solvent (physiological saline) was administered as a control.
The progress of foot/leg lesions was observed 3, 7, 10 and 14 days after lauric acid administration, and evaluated by the following leg necrosis score. The score was given to each of the digits, and the sum of the scores of the respective digits was taken as a lesion index. If the disorder extended to the plantar portion, 5 points were further added.
Score 1: Blackening is limited to the tiptoe.
Score 2: Blackening extends to the digital portion.
Score 3: Necrosis of the digit.
Score 4: Loss of the digit.
A solvent (physiological saline) was similarly administered as a control.
The progress of foot/leg lesions was observed 3, 7, 10 and 14 days after lauric acid administration, and evaluated by the above leg necrosis score.
A test was conducted in the same manner as in (2) above.

[2] = tested on: platelets; assay: In vitro platelet aggregation by various inducers, guinea pig platelets; format: cell-based; details: Cavia porcellus
Excerpt: (§1) Next, the suppression of platelet aggregation by the compounds of the present invention was studied in the same manner as described above with the use of not only collagen, but also arachidonic acid, ADP, thrombin, serotonin, epinephrine and U46619 (pseudo-thromboxane A2 substance) as inducers.
(§2) As platelets, platelets prepared from rats and guinea pigs as well as rabbits were also used.
(§3) Collagen and ADP were purchased from MCM, and used in accordance with the method of preparation described in the manuals attached to the purchased products. Serotonin, epinephrine and thrombin were purchased from Sigma, and used as solutions in physiological saline for injection (Otsuka Pharmaceutical Factory). Arachidonic acid was purchased from Cayman, and dispersed in physiological saline for injection (Otsuka Pharmaceutical Factory) with the use of an immersion type ultrasonic oscillator (US150, NIPPON SEIKI, tip end diameter ca. 3.5 mm). U46619 (pseudo-thromboxane substance) was purchased from FUNAKOSHI, and dissolved in physiological saline for injection (Otsuka Pharmaceutical Factory) when used.
(§4) Collagen (0.1 to 1 μg/ml), arachidonic acid (1 mM), ADP (1 μM), thrombin (1 U/ml), serotonin (100 μM), epinephrine (100 to 200 μM), and U46619 (3 μM) were used.
(§5) Indomethacin was used as a positive control for measuring the suppression of platelet aggregation induced by collagen.

[3] = tested on: platelets; assay: In vitro platelet aggregation by various inducers, rabbit platelets; format: cell-based; details: for IC50: Oryctolagus cuniculus, Platelet, rabbit platelets, read-out: 50% inhibition point, IC50, for in vitro platelet aggregation
Excerpt: as §1, §2, §3, §4, §5

With CC/C=C\C/C=C\C/C=C\C/C=C\C/C=C\C/C=C\CCC(=O)NCCC1CCCN1C (racemic) [Compound 2, (4Z,7Z,10Z,13Z,16Z,19Z)-N-[2-(1-methylpyrrolidin-2-yl)ethyl]docosahexaenoamide] the “leg necrosis score (in words)” value ([1]; administration after induction: first dose 6 hours after lauric acid) was “improve the leg necrosis score dose-dependently”, the “leg necrosis score (in words)” value ([1]; administration started 1 hour before lauric acid) was “improve the leg necrosis score dose-dependently” and the “alleviation of the disorder (in words)” value ([1]; dose of 10 μg/kg) was “tended to alleviate the disorder”. For the same compound, the “alleviation of the disorder (in words)” value ([1]; doses of 30 and 100 μg/kg) was “alleviated the disorder significantly”, the IC50 ([2]; read-out: 50% aggregation inhibition point, collagen-induced aggregation, guinea pig platelets) was ~9 µM and the IC50 ([2]; read-out: 50% inhibition point, IC50, for in vitro platelet aggregation, inducer ADP (1 μM), guinea pig platelets) was 65 ± 19 µM. For the same compound, the IC50 ([2]; read-out: 50% inhibition point, IC50, for in vitro platelet aggregation, inducer collagen (0.1 to 1 μg/ml), guinea pig platelets) was 9 ± 6 µM, the IC50 ([2]; read-out: 50% inhibition point, IC50, for in vitro platelet aggregation, inducer thrombin (1 U/ml), guinea pig platelets) was > 100 µM and the IC50 ([3]; inducer ADP (1 μM)) was > 100 µM. For the same compound, the IC50 ([3]; inducer U46619 (3 μM)) was 50 ± 10 µM, the IC50 ([3]; inducer arachidonic acid (1 mM)) was > 100 µM and the IC50 ([3]; inducer collagen (0.1 to 1 μg/ml)) was 2.1 ± 0.8 µM. For the same compound, the “inhibition of platelet aggregation induced by arachidonic acid, ADP and thrombin (in words)” value ([3]; platelets from the rabbit, the rat or the guinea pig) was “either did not inhibit platelet aggregation, or even when it inhibited platelet aggregation, its degree of inhibition was very low”.
